Data as given in PubChem BioAssay (NCI).
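Briefly, cells in 96-well plates were exposed to five compound concentrations for 48 h, and endpoints were estimated by linear interpolation. GI50 marks 50% less growth. The concentration for full growth arrest is given as TGI.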 Non-standard residues stand in square brackets, D forms with d. Residues, ends and D or L forms follow the SMILES beside them. *: point of attachment. ONb = O=[N+]([O-])c1ccc(CO*)cc1; AllylGly = C=CC[CH](N)C(=O)O; Boc = CC(C)(C)OC(=O)*

Experiments:
Test in all cases: NCI anticancer screen, dose series, 48 h
[1] = system: MDA-MB-435
[2] = system: A549 NSCLC
[3] = system: ACHN renal
[4] = system: UACC-62 melanoma
[5] = system: RPMI-8226 leukemia
[6] = system: MCF7 breast
[7] = system: SK-MEL-5 melanoma
[8] = system: HT29 colon
[9] = system: LOX IMVI melanoma
[10] = system: OVCAR-8 ovarian

Row | SMILES | GI50 [1] | TGI [1] | GI50 [2] | TGI [2] | GI50 [3] | TGI [3] | GI50 [4] | TGI [4] | GI50 [5] | TGI [5] | GI50 [6] | TGI [6] | GI50 [7] | TGI [7] | GI50 [8] | TGI [8] | GI50 [9] | TGI [9] | TGI [10] | GI50 [10]
1 | COc1cc(C2CC(c3ccc(C)cc3)=NN2C=O)ccc1Oc1ccnc2cc(Cl)ccc12 (centres undefined) | > 50 µM | > 50 µM | > 50 µM | > 50 µM | 4.39 µM | > 50 µM | 11.2 µM | > 50 µM | > 50 µM | > 50 µM | > 50 µM | > 50 µM | > 50 µM | > 50 µM | > 50 µM | > 50 µM | > 50 µM | > 50 µM | – | –
2 | Cc1cc(C)nc(NS(=O)(=O)c2ccc(Nc3c4ccccc4nc4c(C(=O)Nc5ccc(S(=O)(=O)N=C(N)N)cc5)ccc(Cl)c34)cc2)n1 | – | – | – | > 100 µM | – | > 100 µM | – | 36.9 µM | – | 80.1 µM | – | – | – | > 100 µM | – | > 100 µM | – | 34.7 µM | 33.4 µM | –
3 | Cn1c2c(c3ccccc31)CCN(CCCCN1CCc3c(n(C)c4ccccc34)C1=O)C2 | – | – | – | > 100 µM | – | > 100 µM | – | > 100 µM | – | > 100 µM | – | – | – | > 100 µM | – | > 100 µM | – | – | > 100 µM | –
4 | Cc1ccc(-[n+]2c3cc(N)c(C)cc3nc3cc(C)c(Nc4ccccc4)cc32)cc1 | 0.0814 µM | 0.358 µM | 0.0441 µM | 1.19 µM | 0.107 µM | 1.17 µM | 0.236 µM | 0.979 µM | – | – | – | – | 0.147 µM | 0.289 µM | 0.0377 µM | 0.345 µM | – | – | > 100 µM | 0.103 µM
5 | Nc1ccn(CCOC(=O)c2ccccc2)c(=O)n1 | – | – | – | > 100 µM | – | > 100 µM | – | > 100 µM | – | > 100 µM | – | – | – | > 100 µM | – | > 100 µM | – | > 100 µM | > 100 µM | –
6 | Nn1c(-c2ccccc2)nc2ccc(Br)cc2c1=O | – | – | – | > 100 µM | – | > 100 µM | – | > 100 µM | – | > 100 µM | – | – | – | > 100 µM | – | > 100 µM | – | – | > 100 µM | –
7 | O=C1C(=O)N(C(=O)c2ccc(Cl)c(Cl)c2)c2ccccc21 | – | – | – | > 100 µM | – | > 100 µM | – | > 100 µM | – | > 100 µM | – | – | – | > 100 µM | – | > 100 µM | – | > 100 µM | > 100 µM | –
8 | N#CCC(=O)Nc1cccc(C(F)(F)F)c1 | – | – | – | > 100 µM | – | > 100 µM | – | > 100 µM | – | – | – | – | – | > 100 µM | – | > 100 µM | – | > 100 µM | > 100 µM | –
9 | COC(=O)C1CC2(CC3=C1CCCC3)OCCO2 (centres undefined) | – | – | – | > 100 µM | – | – | – | > 100 µM | – | > 100 µM | – | – | – | > 100 µM | – | > 100 µM | – | > 100 µM | > 100 µM | –
10 | CCOC(=O)C(=O)Nc1nc2c(s1)C(=O)c1ccccc1C2=O | – | – | – | 34.4 µM | – | 28.1 µM | – | 34.4 µM | – | 48.2 µM | – | – | – | 33.7 µM | – | 27.4 µM | – | – | 47.5 µM | –
11 | O=C1CC(O)C=C1Nc1ccc(Cl)cc1 (centres undefined) | – | – | – | 35.5 µM | – | > 100 µM | – | 5.14 µM | – | – | – | – | – | > 100 µM | – | > 100 µM | – | > 100 µM | > 100 µM | –
12 | COc1cc(OC)c([C@@H]2OC(=O)C3C2C(=O)O[C@H]3c2cc(OC)c(OC)cc2OC)cc1OC (some centres undefined) | – | – | – | > 100 µM | – | > 100 µM | – | > 100 µM | – | > 100 µM | – | – | – | – | – | > 100 µM | – | – | > 100 µM | –
13 | CNC(P(=O)([O-])[O-])P(=O)([O-])[O-].N.N.[Pt+2] | – | – | > 100 µM | > 100 µM | – | – | > 100 µM | > 100 µM | – | – | – | – | – | – | – | – | > 100 µM | > 100 µM | > 100 µM | > 100 µM
14 | Cc1cnc2c(C)ccc([N+](=O)[O-])c2c1NCCCN(C)C | – | – | – | > 100 µM | – | > 100 µM | – | – | – | > 100 µM | – | – | – | – | – | > 100 µM | – | > 100 µM | > 100 µM | –
15 | CCOC(=O)[C@@]1(C)C=C2O[C@@H]3OC4(CCCCC4)O[C@@H]3C2=C2C(O)=CC=C(O)[C@]21C(=O)OC | – | – | – | > 68 µM | – | > 68 µM | – | > 68 µM | – | > 68 µM | – | – | – | > 68 µM | – | > 68 µM | – | > 68 µM | > 68 µM | –
16 | CCc1cccc(C(C)C)c1NC(=O)C(=O)C(Cc1nc2ccccc2[nH]c1=O)C(=O)OC (centres undefined) | – | – | – | > 100 µM | – | > 100 µM | – | > 100 µM | – | > 100 µM | – | – | – | > 100 µM | – | > 100 µM | – | > 100 µM | > 100 µM | –
17 | Cn1c(=O)nc2n(-c3ccc(Cl)cc3)c3ccc(Cl)cc3nc-2c1=O | – | – | – | > 100 µM | – | – | – | 3.09 µM | – | – | – | – | – | 2.37 µM | – | 59.2 µM | – | 13.1 µM | 52.5 µM | –
18 | O=c1c2ccccc2[nH]c(=S)n1-c1ccc(Br)cc1 | – | – | – | > 100 µM | – | > 100 µM | – | – | – | > 100 µM | – | – | – | – | – | > 100 µM | – | > 100 µM | > 100 µM | –
19 | COc1ccc(Cl)cc1Nc1nc(C(F)(F)F)ccc1C(=O)N/N=C/c1c(Cl)cccc1Cl | > 100 µM | > 100 µM | > 100 µM | > 100 µM | 8.01 µM | > 100 µM | 7.16 µM | > 100 µM | – | – | – | – | – | – | > 100 µM | > 100 µM | 5.14 µM | > 100 µM | – | –
20 | Cc1cc2c(c(C#N)c1C)NC(=O)CCC2=O | – | – | – | > 100 µM | – | > 100 µM | – | > 100 µM | – | > 100 µM | – | – | – | – | – | > 100 µM | – | – | > 100 µM | –
21 | CC(=O)n1c(COS(C)(=O)=O)nc2ccccc21 | – | > 100 µM | – | > 100 µM | – | > 100 µM | – | > 100 µM | – | – | – | > 100 µM | – | > 100 µM | – | > 100 µM | – | > 100 µM | > 100 µM | –
22 | C=CCC(NC(=O)OC(C)(C)C)C(=O)NC(CCC(=O)OCc1ccc([N+](=O)[O-])cc1)C(N)=O (centres undefined) (Boc-[AllylGly]-Glu(ONb)-NH2; configuration not given here) | – | – | 52.3 µg/mL | – | 18.1 µg/mL | 33.3 µg/mL | 19.5 µg/mL | 38.9 µg/mL | 26.7 µg/mL | 77.6 µg/mL | – | – | – | – | – | – | 49 µg/mL | – | – | 35.8 µg/mL
23 | CC1=C(C)C(=O)c2c(cc3ccc4ccccc4n23)C1=O | – | – | – | > 100 µM | – | > 100 µM | – | > 100 µM | – | > 100 µM | – | – | – | > 100 µM | – | > 100 µM | – | > 100 µM | > 100 µM | –
24 | N#Cc1c(Sc2ccccc2N)cccc1Sc1ccccc1N | 43.2 µM | – | 56.9 µM | – | 35.2 µM | – | 14.7 µM | – | 28.8 µM | – | 27.9 µM | – | 34.7 µM | – | 63.4 µM | – | – | – | – | 53.8 µM
